According to ChEMBL document CHEMBL1201862, “PubChem BioAssay data set” (2004):
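In this assay, cells in 96-well plates receive the compound at five concentrations for 48 hours. Endpoints are linearly interpolated between the surrounding concentrations. At the GI50, growth is halved.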 Active and inactive are the calls of the source. Rule as the data show it: active = GI50 up to about 1.1 µM and inactive = higher.

Legend:
Test in all cases: NCI anticancer screen, dose series, 48 h
[1] = system: 786-0
[2] = system: COLO 205
[3] = system: HCT-15
[4] = system: HOP-92
[5] = system: Hs-578T
[6] = system: IGROV-1
[7] = system: KM12
[8] = system: LOX IMVI
[9] = system: MDA-N
[10] = system: MOLT-4
[11] = system: NCI/ADR-RES
[12] = system: OVCAR-5
[13] = system: RXF 393
[14] = system: SF-295
[15] = system: SN12C
[16] = system: SNB-19
[17] = system: SNB-75
[18] = system: SR
[19] = system: TK-10
[20] = system: CCRF-CEM

Measured: GI50

O=c1cc(CO)oc(C(O)c2ccccc2)c1O (stereo not drawn)
> 100 µM: [3]
inactive: [1] > 100 µM | [2] > 100 µM | [4] > 100 µM | [5] > 100 µM | [6] > 100 µM | [7] > 100 µM | [8] > 100 µM | [9] > 100 µM | [10] > 100 µM | [11] > 100 µM | [12] > 100 µM | [13] > 100 µM | [14] > 100 µM | [15] > 100 µM | [16] > 100 µM | [17] > 100 µM | [18] > 100 µM | [19] > 100 µM

COC12C=CC(CC1)C(C)(C)C2=O (stereo not drawn)
> 100 µM: [3]
inactive: [1] > 100 µM | [20] > 100 µM | [2] > 100 µM | [4] > 100 µM | [5] > 100 µM | [6] > 100 µM | [7] > 100 µM | [9] > 100 µM | [10] > 100 µM | [11] > 100 µM | [12] > 100 µM | [13] > 100 µM | [14] > 100 µM | [15] > 100 µM | [16] > 100 µM | [17] > 100 µM | [18] > 100 µM | [19] > 100 µM

Cc1cccc2c1c(=O)c1c(O)c3c(cc1n2C)OC(C)(C)C=C3
> 10 µM: [3]
inactive: [1] > 10 µM | [20] > 10 µM | [2] > 10 µM | [5] > 10 µM | [6] > 10 µM | [7] > 10 µM | [8] > 10 µM | [9] > 10 µM | [10] > 10 µM | [11] > 10 µM | [12] > 10 µM | [13] > 10 µM | [14] > 10 µM | [15] > 10 µM | [16] > 10 µM | [17] > 10 µM | [18] 9.53 µM | [19] > 10 µM

Cc1ccc2ccc3ccc(C)nc3c2n1 [NEOCUPROINE]
inactive: [1] > 29.7 µM | [4] > 100 µM | [5] > 100 µM | [7] 12.5 µM | [8] 4.09 µM | [9] > 100 µM | [10] 1.34 µM | [11] > 100 µM | [13] > 42 µM | [14] 5.65 µM | [15] > 100 µM | [16] > 100 µM | [17] > 52 µM | [19] > 100 µM
active: [20] 0.59 µM | [2] 0.491 µM | [6] 0.429 µM | [18] 0.728 µM
> 71.6 µM: [3]

O=C(O)C(Cc1ccc2c(c1)CCC2)(Cc1ccc2c(c1)CCC2)C(=O)O
> 100 µM: [3]
inactive: [1] > 100 µM | [20] > 100 µM | [2] > 100 µM | [5] > 100 µM | [6] > 100 µM | [7] > 100 µM | [8] > 100 µM | [9] > 100 µM | [10] > 100 µM | [11] > 100 µM | [12] > 100 µM | [13] > 100 µM | [14] > 100 µM | [15] > 100 µM | [16] > 100 µM | [17] > 100 µM | [18] > 100 µM | [19] > 100 µM

O=C(/C=C/c1ccc2c(c1)OCO2)c1ccc(O)cc1
13.4 µM: [3]
inactive: [1] 1.63 µM | [20] 8.07 µM | [2] 17.3 µM | [4] 14.5 µM | [5] 17.6 µM | [6] 15.1 µM | [8] 11.2 µM | [9] 10.8 µM | [11] 1.76 µM | [12] 17.5 µM | [13] 15.6 µM | [14] 17.5 µM | [15] 15.5 µM | [16] 16.8 µM | [17] 25.1 µM | [18] 1.17 µM | [19] 18.7 µM

CC(C)[N+]([O-])(CCCNc1c2ccccc2nc2cccc([N+](=O)[O-])c12)C(C)C
active: [1] 0.0467 µM | [20] < 0.0412 µM | [2] < 0.019 µM | [4] < 0.0355 µM | [5] < 0.0481 µM | [7] 0.065 µM | [8] 0.0619 µM | [9] < 0.0342 µM | [10] < 0.0181 µM | [11] 0.581 µM | [12] < 0.0395 µM | [13] 0.172 µM | [14] < 0.0412 µM | [15] 0.0551 µM | [16] 0.0726 µM | [18] 0.0142 µM

CN(/N=C/c1cccc2cccnc12)c1ccc(Cl)cc1[N+](=O)[O-]
> 100 µM: [3]
inactive: [1] > 100 µM | [20] > 100 µM | [2] > 100 µM | [4] 31.7 µM | [5] 81.5 µM | [6] > 100 µM | [7] 96.8 µM | [9] > 100 µM | [10] 76.7 µM | [11] 87.1 µM | [12] > 100 µM | [13] > 100 µM | [14] > 100 µM | [15] > 100 µM | [16] > 100 µM | [17] > 100 µM | [18] > 100 µM | [19] > 100 µM
